Source: the NIST ThermoML archive (doi:10.1016/j.jct.2017.12.021)
Counter-ions that a name gives are not always drawn. ± gives the expanded uncertainty stated by the source.

Settings: 101.33 kPa, Liquid; for viscosity: Capillary tube (Ostwald / Ubbelohde) method; for mass density: Pycnometric method

viscosity (293.15 K) | mass density (293.15 K) | viscosity (298.15 K) | mass density (298.15 K) | viscosity (303.15 K) | mass density (303.15 K) | viscosity (308.15 K) | mass density (308.15 K) | viscosity (313.15 K) | mass density (313.15 K) | viscosity (318.15 K) | mass density (318.15 K) | viscosity (323.15 K) | mass density (323.15 K) | viscosity (328.15 K) | mass density (328.15 K) | viscosity (333.15 K) | mass density (333.15 K) | viscosity (338.15 K) | mass density (338.15 K) | Compound
44.12 ± 4.4 mPa·s | 1138.4 ± 4.7 kg/m3 | 32.1 ± 3.2 mPa·s | 1134.5 ± 4.7 kg/m3 | 20.79 ± 2.1 mPa·s | 1131.1 ± 4.7 kg/m3 | 16.55 ± 1.7 mPa·s | 1126.2 ± 4.7 kg/m3 | 13.18 ± 1.3 mPa·s | 1122.4 ± 4.7 kg/m3 | 10.24 ± 1 mPa·s | 1116.5 ± 4.6 kg/m3 | 8.62 ± 0.87 mPa·s | 1112.1 ± 4.6 kg/m3 | 7.23 ± 0.73 mPa·s | 1106.6 ± 4.6 kg/m3 | 6.41 ± 0.65 mPa·s | 1102.8 ± 4.6 kg/m3 | 5.71 ± 0.57 mPa·s | 1097.3 ± 4.6 kg/m3 | CCOC(=O)CC(O)(CC(=O)OCC)C(=O)OCC [triethyl citrate]
– | 1142.1 ± 5.2 kg/m3 | 46.55 ± 4.7 mPa·s | 1137.5 ± 5.2 kg/m3 | 34.56 ± 3.5 mPa·s | 1133.1 ± 5.2 kg/m3 | 25.1 ± 2.6 mPa·s | 1127.6 ± 5.1 kg/m3 | 17.52 ± 1.8 mPa·s | 1124.1 ± 5.1 kg/m3 | 13.81 ± 1.4 mPa·s | 1118.5 ± 5.1 kg/m3 | 10.95 ± 1.1 mPa·s | 1115.1 ± 5.1 kg/m3 | 8.86 ± 0.9 mPa·s | 1110.1 ± 5.1 kg/m3 | 7.98 ± 0.81 mPa·s | 1105.4 ± 5 kg/m3 | 7.02 ± 0.71 mPa·s | 1100.5 ± 5 kg/m3 | CCOC(=O)CC(CC(=O)OCC)(OC(C)=O)C(=O)OCC [triethyl acetyl citrate]
21.48 ± 2.2 mPa·s | 1158.3 ± 4.7 kg/m3 | 16.36 ± 1.6 mPa·s | 1152.9 ± 4.7 kg/m3 | 12.5 ± 1.3 mPa·s | 1147.4 ± 4.7 kg/m3 | 9.95 ± 1 mPa·s | 1142 ± 4.6 kg/m3 | 8.21 ± 0.82 mPa·s | 1136.6 ± 4.6 kg/m3 | 6.75 ± 0.68 mPa·s | 1131.1 ± 4.6 kg/m3 | 5.66 ± 0.57 mPa·s | 1125.7 ± 4.6 kg/m3 | 4.82 ± 0.48 mPa·s | 1120.2 ± 4.6 kg/m3 | 4.18 ± 0.42 mPa·s | 1114.8 ± 4.5 kg/m3 | 3.67 ± 0.37 mPa·s | 1109.4 ± 4.5 kg/m3 | CC(=O)OCC(COC(C)=O)OC(C)=O [glyceryl triethanoate]
3.87 ± 0.39 mPa·s | 981.5 ± 4 kg/m3 | 3.26 ± 0.33 mPa·s | 977 ± 4 kg/m3 | 2.81 ± 0.28 mPa·s | 973.1 ± 4 kg/m3 | 2.42 ± 0.24 mPa·s | 968.4 ± 4 kg/m3 | 2.15 ± 0.22 mPa·s | 963.5 ± 4 kg/m3 | 1.9 ± 0.19 mPa·s | 958.5 ± 3.9 kg/m3 | 1.69 ± 0.17 mPa·s | 953.9 ± 3.9 kg/m3 | 1.55 ± 0.16 mPa·s | 948.9 ± 3.9 kg/m3 | 1.43 ± 0.14 mPa·s | 944.1 ± 3.9 kg/m3 | 1.3 ± 0.13 mPa·s | 940.1 ± 3.9 kg/m3 | CCCCOC(=O)C(C)O (centres undefined) [butyl 2-hydroxypropanoate]
